This is an account of results in the OPERA property sets (Mansouri et al. 2018).

Peptide text beside a SMILES is read from it.

As for `O=[N+]([O-])Cc1ccccc1`, the logP (in general, a log measure of how a compound divides between an organic and an aqueous phase) worked out at 1.75.

Regarding `Cc1cc(C(=O)NNCc2ccccc2)no1`, the logP was found to be 1.49.

The compound `COc1ccc(Br)cc1-c1nc(N)nc(N)n1` returned a logP of 1.53.

For `CC(=O)c1ccc(C(C)C)cc1`, the logP stood at 2.98.

`CCC(C)N(CC(O)COc1ccccc1)CC(O)COc1ccccc1` (stereo not drawn) gave a logP of 3.46.

For the compound `O=C(Cn1cnc([N+](=O)[O-])n1)NCCO`, the logP is -1.59.

Compound `Nc1ccc(-c2ccc(N)cc2)cc1` had a logP of 1.34.

Turning to `CC(=O)NC(Cc1ccccc1)C(N)=O` (stereo not drawn), the log partition coefficient (logP) was -0.04.

`C=CC#N` displayed a logP of 0.25.

Consider `CN(C)C(=O)OCc1ccc(Cl)cc1`, for which the logP stood at 2.93.

As to `O=C1CCC(=O)N1c1ccccc1I`, the logP is 0.8.

As to `O=C(O)c1ccc([N+](=O)[O-])cc1Cl`, the logP stood at 2.03.

Take `CN(CC(F)(F)F)N=Nc1ccc(C(N)=O)cc1`: the lipophilicity (logP) was found to be 1.86.

With `COC1C(OC(C)=O)CC(=O)OC(C)CC=CC=CC(O)C(C)CC(CC=O)C1OC1OC(C)C(OC2CC(C)(O)C(OC(=O)CC(C)C)C(C)O2)C(N(C)C)C1O` (stereo not drawn), the logP came to 2.39.

For the compound `O=C(NC(=O)c1ccccc1O)c1ccccc1`, the logP stood at 1.38.

Consider `CC12CC(O)C3C(CCC4(O)CC(O)CC(O)C34CO)C1(O)CCC2C1=CC(=O)OC1` (stereo not drawn), for which the logP was -0.02.

In the case of `CCOC(=O)Oc1cccc2cccnc12`, the logP was 1.73.

As to `CCC(C)N` (stereo not drawn), the logP amounted to 0.74.

Compound `COc1ccc(CN(C)N=O)cc1` yielded a logP of 1.62.

In turn, `O=C(CN1CCCCC1)Nc1cccc(I)c1` gave a logP of 3.92.

For `O=C1C=CCCC1`, the logP came out at 0.61.

Regarding `NC(=O)c1ccsc1`, the logP was found to be 0.5.

The compound `N#Cc1ccc2cc[nH]c2c1` came in with a logP of 2.38.

In turn, `C=C1C(=O)OC2CC(C)C3C=CC(=O)C3(C)C(OC(=O)CC(=O)OC3C4C(=C)C(=O)OC4CC(C)C4C=CC(=O)C43C)C12` (stereo not drawn) yielded a logP of 1.33.

Take `COc1cc(S(C)=O)ccc1-c1nc2nccnc2[nH]1` (stereo not drawn): the logP was determined as 0.66.

In turn, `CC(=O)CNc1ccccc1C(=O)O` registered a logP of 1.85.

As for `Cc1ccc(CC(=O)O)cc1`, the logP is 1.86.

Compound `CCCCOC(=O)Oc1cccc(C2(C(=O)CC)CCN(C)CC2)c1` came in with a log partition coefficient (logP) of 2.42.

The compound `CC(=O)Nc1ccc(Br)cc1` yielded a logP of 2.29.

In the case of `O=NN1CCOCC1`, the logP is -0.44.

The compound `Nc1nc(N)nc(-c2cccc([N+](=O)[O-])c2)n1` came in with a logP of 1.57.

As for `O=[N+]([O-])c1ncn(CC(F)CO)n1` (stereo not drawn), the logP is -0.8.

`NNC(=O)c1cccc(O)c1`: the logP was -0.08.

For `NC(=O)CCNC(=O)C(F)(F)Cn1ccnc1[N+](=O)[O-]`, the logP was -0.95.

The compound `COP(=S)(OC)SCn1nnc2ccccc2c1=O` yielded a logP of 2.75.

The compound `CCCCCCNC(=O)c1ccc(S(N)(=O)=O)cc1` displayed a logP of 2.05.

Compound `c1ccc2cnncc2c1` had a logP of 0.57.

Regarding `C=CCOc1ccccc1C(=C)n1ccnc1`, the logP turned out to be 2.79.

Take `N#Cc1cccc(CC(=O)O)c1`: the logP stood at 1.18.

As to `CCc1ccccc1OC(=O)NC`, the logP came out at 1.93.

As to `NS(=O)(=O)c1cccc2cccnc12`, the logP turned out to be 0.42.

`Cc1ncc([N+](=O)[O-])n1CCCl` registered a logP of 0.88.

`COc1ccc(NC(C)=O)cc1` registered a logP of 1.03.

`C#Cc1ccccc1`: the logP is 2.53.

For `CN(C)C(=O)c1ccco1`, the logP amounted to 0.41.

As for `CC(C)C(=O)C(C)C`, the logP turned out to be 1.86.

Consider `O=[N+]([O-])c1cc2ccccc2nn1`, for which the logP stood at 0.73.

Turning to `Cc1ccc(C)c(O)c1`, the logP came to 2.33.

`CCOC(=O)c1ccc([N+](=O)[O-])cc1`: the logP was found to be 2.33.

The compound `C1CCNC1` returned a logP of 0.46.

Take `CC(=O)OCC(=O)[C@@]12OC(C)(C)O[C@@H]1C[C@H]1[C@@H]3C[C@H](F)C4=CC(=O)C=C[C@]4(C)[C@@]3(F)[C@@H](O)C[C@@]12C`: the logP stood at 3.19.

Compound `NC(=S)c1cccs1` gave a logP of 1.34.

As for `Cc1c[nH]cn1`, the logP came to 0.23.

`C1CCCCCC1` gave a logP of 4.

In the case of `NS(=O)(=O)c1ccc2ncccc2c1`, the logP was 0.56.

Regarding `CNCCO`, the logP is -0.94.

As for `NNC(=O)c1ccccc1N`, the logP was -0.18.

Consider `O=C1NC(=O)C(c2cccnc2)N1` (stereo not drawn), for which the logP is -0.95.

Compound `C(=Nc1ccccc1)c1ccccc1` had a log partition coefficient (logP) of 2.82.

`Cc1c[nH]c(=O)[nH]c1=O`: the logP is -0.62.

In turn, `FC(F)(F)c1nc2c(Br)c(Br)c(Br)c(Br)c2[nH]1` showed a lipophilicity (logP) of 4.81.

`CCCCOC` had a logP of 1.66.

Turning to `COC(=O)C(Cl)(Cl)Cl`, the logP came out at 2.03.

On to `O=NN1CCC(Br)C(Br)C1` (stereo not drawn), for which the logP is 1.23.

The compound `C=CCOc1noc2c1CNCC2` yielded a logP of 0.56.

Compound `CCCCCOC(=O)c1cc(O)c(O)c(O)c1` showed a logP of 2.67.

For the compound `CNc1ccccc1[N+](=O)[O-]`, the logP is 2.18.

Take `CSCC[C@H](N)C(=O)O`: the logP was -1.87.

With `CCNC(C)C`, the logP was found to be 0.93.

For the compound `O=C1CC(=O)NC(=O)N1`, the logP is -1.47.

As to `O=CNc1ccc(F)cc1`, the logP was 1.27.

The compound `c1ccc2sccc2c1` had a logP of 3.12.

Compound `O=C(O)COc1cccc(Br)c1` showed a logP of 2.22.

Compound `CCN(CC)N=Nc1ccc(C(N)=O)cc1` had a logP of 2.26.

The compound `FCCCc1ccccc1` returned a logP of 2.95.

With `CCOC(N)=O`, the logP is -0.15.

The compound `CC(=O)OC1CCCCC1NC(=O)N(CCCl)N=O` (stereo not drawn) showed a logP of 1.98.

`CC(=O)c1ccc(N(C)C)cc1` yielded a logP of 2.1.

With `OCc1ccccn1`, the logP amounted to 0.06.

`COc1ccc2c(c1)nc(N)n2C` returned a logP of 0.87.

The compound `Cc1cccc(Cl)c1NC1=NCCN1` displayed a logP of 1.71.

As for `C[C@]12C[C@H](O)[C@H]3[C@@H](CCC4=CC(=O)CC[C@@]43C)[C@@H]1CC[C@@H]2C(=O)CO`, the logP is 1.94.

Turning to `Cc1cccc(CO)c1`, the logP stood at 1.6.

For the compound `O=C(O)c1ccc(Oc2ccccc2)cc1`, the log partition coefficient (logP) came out at 3.91.

`CC(=O)N[C@@H](Cc1c[nH]c2ccccc12)C(=O)N[C@H](C(N)=O)C(C)C` (Ac-Trp-Val-NH2) returned a logP of 0.73.

In turn, `CC(=O)C(=Cc1ccccc1C)C(C)=O` came in with a logP of 1.98.

`Cc1ccc(COC(N)=O)cc1` came in with a logP of 1.76.

The compound `Clc1cc(Cl)c(-c2ccccc2)c(Cl)c1` showed a logP of 5.47.

`Oc1cc(Cl)c(Cl)c(Cl)c1Cl` had a logP of 4.21.

Turning to `O=C1NC(=O)C(c2ccccc2)(c2ccc(O)cc2)N1` (stereo not drawn), the logP was 1.7.

Compound `CCc1cccc2cccnc12` had a logP of 2.93.

The compound `CN(C)c1cccc2ccccc12` displayed a logP of 3.46.

In turn, `CC(=O)Nc1ccc(O)c(C)c1C` returned a logP of 0.57.

Regarding `CCN(CC)CCNc1ccc(C)c(Cl)c1`, the logP came to 4.14.

`CNC(=O)Oc1ccc(C(C)C)cc1` registered a logP of 2.57.

Turning to `COc1ccccc1C`, the logP was determined as 2.74.

Turning to `CCCCNc1ccc(C(=O)OCCOCCOCCOCCOCCOCCOCCOCCOCCOC)cc1`, the logP came to 2.45.

As for `CC(O)CO` (stereo not drawn), the logP was -0.92.
